Measurements from patent US20120171194A1, “Method of Cell Differentiation and Uses Therefor in Screening, Diagnosis and Therapy” (priority 2009, published 2012).

Test system: co-culture of HLA-A2 positive monocytes and HLA-A2 negative HUVECs
Experiment: Co-culture of PBMC-derived monocytes with HUVECs: endothelial incorporation of monocyte-derived EC-like cells (flow cytometry, HLA-A2)
Type: cell-based, human
Conditions: day 3; for proportion of HLA-A2 positive cells of the total cell population: no apoA-I control about 15%; for endothelial incorporation of HLA-A2 positive monocyte-derived endothelial-like cells into the HUVECs layer (effect in words): apoA-I 0.25, 0.5 and 2.0 mg/ml
Experimental: Human umbilical vein ECs (HUVEC) were isolated from human umbilical veins using collagenase digestion. Briefly, umbilical cords from normal or caesarean deliveries are collected and perfused with Ca^2+ and Mg^2+-free phosphate buffer saline (PBS). HUVECs were removed by short treatment at 37° C. with collagenase solution (0.1% in PBS with Ca^2+ and Mg^2+). HUVECS were cultured and expanded for use in investigation at no later than passage 4. Cells were grown under standard culture conditions of 37° C. in a 95% air/5% CO2 atmosphere in M199 media (Cell Applications or Invitrogen Australia) supplemented with 10% foetal bovine serum (FBS; Trace Bioscience, or Invitrogen Australia) or with 10% heat-inactivated human serum and with a D-glucose concentration of 5.0 mM. The human serum was obtained from healthy donors within 7 days of the experiment. The human serum was filtered with 0.22 μm PES membrane (Millipore) and heat inactivated at 56° C. for 30 minutes.
The ECs were screened for human leucocyte antigen-A2 type (HLA-A2) expression with direct immunofluorescence and flow cytometry (Beckman Coulter). The batches of HUVEC cells that were HLA-A2 negative were used in these investigations. Alternatively, batches of HACECs that are HLA-A2 negative are used in these investigations. The batches of HLA-A2 negative HUVECs preferably at second passage were grown to approximately 75% sub-confluence on 6-wells cell culture plates (Becton Dickinson Labware, growth area 9.6 cms^2 per well) at a density varying from 10,000 to 500,000 cells per well 24 hours before the co-culture. Usually a density of 500,000 cells per well is needed to achieve a fully confluent layer of HUVECS. Alternatively, batches of HLA-A2 negative HCAECs preferably at second passage are grown to approximately 75% sub-confluence on 6-wells cell culture plates (Bectin Dickinson Labware).
Fresh peripheral blood mononuclear cells (PBMCs) were obtained from venous blood of healthy HLA-A2 positive donors (n=5) by gradient centrifugation on Lymphoprep in a hypertonic medium (Lymphoprep™) and immediately seeded onto HUVECs. Alternatively, the PBMCs are immediately seeded onto HCAECs layers at densities ranging from 0.25 to 2×10^6 cells per well. […] The co-cultured cell layer containing HUVECs were detached at multiple time points between day 0 and day 6 by addition of 20 μl of detachment solution containing 0.12% trypsin and analyzed by direct immunofluoresence and flow cytometry inter alia for expression of cell surface markers. […]
Expression of cell surface markers was analyzed by two-colors direct immunofluoresence and flow cytometry (Cytomics FC500, Beckman Coulter). […]

apolipoprotein A-I [apoA-I]
proportion of HLA-A2 positive cells of the total cell population (0.5 mg/ml apoA-I in co-culture, t test P<0.01): about 33% | proportion of HLA-A2 positive cells of the total cell population (2.0 mg/ml apoA-I in co-culture): about 37% | endothelial incorporation of HLA-A2 positive monocyte-derived endothelial-like cells into the HUVECs layer (effect in words): dose dependent increase | endothelial incorporation of HLA-A2 positive monocyte-derived endothelial-like cells into the HUVECs layer (effect in words) (listed as ApoA-I): increased endothelial incorporation
